Reference: patent publication US20180147296A1, “CARBON MATERIAL DELIVERY SYSTEMS AND METHODS” (The Research Foundation for The State University of New York, priority 2015, published 2018)

Legend:
HeLa cells [1] = assay: PrestoBlue viability assay, C6 ceramide; type: cell-based; conditions: 8 μg/mL of C6; 24 hrs
Procedure: HeLa cells were seeded in flat-bottomed 96 well plates at a density of 5000 cells/well and were allowed to adhere overnight. Ceramide-loaded nanoparticles (O-GNRs or GNPs) were added to each well at various concentrations ranging from 10-100 μg/mL of nanoparticles. In order to ensure that any observed decrease in viability compared to untreated cells could not be attributed to the loading process, the loading process was repeated with only nanoparticles and incubated them with HeLa cells at the highest concentration used (100 μg/mL). After 24 hours, the media was aspirated and each well was rinsed twice with PBS. […] After 2 hours, the plates were removed and the fluorescence intensity of each well was measured using a Molecular Devices SpectraMax M2e (Sunnyvale, Calif., USA) with an excitation wavelength of 560 nm and an emission wavelength of 590 nm. […] The cell viability is expressed as a percent of the […] with the formula: […]
where Itest is the fluorescence intensity of cells exposed to ceramide-loaded nanoparticles, Icontrol is the fluorescence intensity of […], and Iblank is the fluorescence intensity from empty wells.
In a separate experiment, the efficacy of ceramide-loaded O-GNRs were compared to C6 ceramide without nanoparticles placed directly in the media. […] Viability was assessed with PrestoBlue using identical methods as described above.

HeLa cells [2] = assay: Confocal microscopy of C12 NBD ceramide; type: cell-based; conditions: 2 hours
Procedure: C12 NBD ceramide was loaded onto O-GNRs using the same procedure as C24 and C16 ceramide. HeLa cells were seeded in glass-inset confocal dishes at a density of 7.5×10^4 cells/mL with 2 mL per plate and allowed to adhere overnight. Cells were treated with either 5 μM fluorescent C12 NBD ceramide or an equivalent amount of fluorescent C12 NBD ceramide loaded on O-GNRs for 2 hours and imaged using a Leica TCS SP8 Laser Scanning Confocal Microscope System (Buffalo Grove, Ill., USA). Cells were pretreated with inhibitors of O-GNR uptake Dynasore and Gefitinib, endosome disruptor Desipramine, or no treatment for 30 minutes prior to the addition of ceramide or ceramide-loaded O-GNRs.

[3] = PrestoBlue assay, separate cultures; type: cell-based; conditions: human, separate culture, 80 μM Luc free or loaded, read-out: viability compared to untreated controls
Procedure: (§1) Luc alone (80 μM), 80 μM Luc loaded O-GNR-PEG-DSPE and O-GNR-PEG-DSPE (same weight as used for Luc loading) were incubated with CMV/U251, A1-5/CMV/U251, MCF-7 and CG-4 cells (5×10^3 cells per well in 96 well plates) for 24 hours. Following the incubation period the media was removed and the cells were washed twice with 1×PBS. 100 μL of fresh media was added to each well, as well as 10 μL of PrestoBlue® to each well, and incubated for 4 hours. Fluorescence was measured by Cytofluor fluorescence multiwell plate reader (Infinite M200, Tecan Group Ltd, NC, USA) with excitation at 530 nm, and emission at 580 nm.
(§2) The cell viability in terms of % of unexposed cells is expressed as the percentage of (Ftest−Fblank)/(Fcontrol−Fblank), where Ftest is the fluorescence of the cells exposed to nanoribbon-drug sample, Fcontrol is the fluorescence of the untreated sample and Fblank is the fluorescence of the wells without any cells. The PrestoBlue® reading for all lysed cells was also taken for comparison.

MCF-7 = assay: PrestoBlue assay, separate cultures; type: cell-based; conditions: 80 μM Luc free or loaded; 24 hours
Procedure: as §1, §2

CG-4 = assay: PrestoBlue assay, separate cultures; type: cell-based, rat; conditions: 80 μM Luc free or loaded; 24 hours
Procedure: as §1, §2

[4] = PrestoBlue assay, MCF-7-CMV/U251 co-culture; type: cell-based; conditions: human, read-out: viability compared to untreated controls
Procedure: (§3) MCF-7, CG-4 and CMV/U251 were seeded separately on 12 mm round glass coverslips (Fisherbrand, Fisher Scientific, PA) in 100 mm plates at a density of 2.2×10^6 cells and allowed to grow overnight. For the two separate co-culture condition experiments, one coverslip from each cell line was placed in 6 well plates, for a total of two coverslips per well. These cells were then incubated with Luc alone (80 μM), 80 μM Luc loaded O-GNR-PEG-DSPE or O-GNR-PEG-DSPE for 24 h. After the incubation period, the media was removed and the cells were washed twice with 1×PBS. Each coverslip was then transferred to its own well in 6 well plates containing 3 mL of media and 300 μL of PrestoBlue® reagent. After incubating for 4 h, the fluorescence intensity was recorded using the procedure described above.

[5] = PrestoBlue assay, CG-4-CMV/U251 co-culture; type: cell-based; conditions: read-out: viability compared to untreated controls
Procedure: as §3

A1-5/CMV/U251 = assay: Annexin V/PI staining, flow cytometry; type: cell-based; conditions: 4 hours; for % AV+ / % PI + AV+ / % PI+ / % PI−AV−: A1-5/CMV/U251, free or on GONR
Procedure: (§4) Luc alone and Luc-loaded O-GNR-PEG-DSPEs at different concentrations (5-80 μM) were incubated with CMV/U251, A1-5/CMV/U251 and CG-4 (5×10^5 cells/3 mL in 6-well plates) for 4 hours. Unexposed cells were used as control. Unloaded O-GNR-PEG-DSPEs in amounts equivalent to the loaded nanoparticles were also exposed to all the cell types as delivery agent control. The viability of the cells was analyzed by flow cytometry after Annexin V/PI staining using FACS Calibur Cell Sorter (BD Biosciences, San Jose, Calif.).
(§5) Annexin V (AV) is a 35 KDa phospholipid binding protein with an affinity for phosphotidyl serine. Early apoptotic cells show exposed phosphotidyl serine on their cell surface while it is still intact. PI on the other hand can only enter dead cells or early necrotic cells with compromised membranes. Thus, in flow cytometry AV+/PI+ represents dead cells, AV+/PI− represents cells in early apoptosis, AV−/PI+ represents dead or necrotic cells with compromised membranes, and AV−/PI− represents healthy living cells. […] However, 37% of cells were still living after 4 hours of exposure to O-GNR-PEG-DSPE loaded with 80 μM Luc.

CMV/U251 = assay: Annexin V/PI staining, flow cytometry; type: cell-based; conditions: 4 hours; for % AV+ / % PI + AV+ / % PI+ / % PI−AV−: CMV/U251, free or on GONR
Procedure: as §4, §5

HeLa cells [6] = assay: Live-cell confocal microscopy of NBD-ceramide; type: cell-based; conditions: 40 μg/mL loaded O-GNRs or equal NBD-ceramide in ethanol; one hour
Procedure: In order to visualize the uptake of ceramide-loaded nanoparticles into cells, we loaded O-GNRs with C6 ceramide conjugated to 4-Chloro-7-nitrobenzofurazan (NBD-ceramide). HeLa cells were seeded in glass-inset confocal dishes at a density of 7.5×10^4 cells/mL with 2 mL per plate and allowed to adhere overnight. The following day, cells were placed in a LiveCell™ stage top incubation platform (Pathology Devices Inc., Westminster, Md., USA) and NBD-ceramide-loaded O-GNRs were added to these plates at a concentration of 40 μg/mL. As a control, cells were also incubated with an equivalent amount of NBD-ceramide in ethanol in a separate experiment. The cells were then imaged using a Leica TCS SP8 Laser Scanning Confocal Microscope System (Buffalo Grove, Ill., USA) over a period of one hour at two minute intervals.

CCCCCCCCCCCCC/C=C/[C@@H](O)[C@H](CO)NC(=O)CCCCC [C6 ceramide, C6-Ceramide]
HeLa cell viability greater than lysed cells (HeLa cells [1]): 55.8%

CCCCCCCCCCCCC/C=C/[C@@H](O)[C@H](CO)NC(=O)CCCCCCCCCCCNc1ccc([N+](=O)[O-])c2nonc12 [C12 NBD ceramide]
fluorescence compared with cells not treated with inhibitor (HeLa cells [2]; pretreated with Dynasore 30 minutes): no difference
fluorescence compared with cells not treated with inhibitor (HeLa cells [2]; pretreated with Gefitinib 30 minutes): no difference
endosome localization compared with cells not treated with desipramine (HeLa cells [2]; pretreated with desipramine 30 minutes): significantly less endosome localization

CCN(CC)CCNc1ccc(C)c2sc3ccccc3c(=O)c12 [Lucanthone]
viability at 24 h, 80 μM ([3]; A1-5/CMV/U251 cells): ~30%
viability at 24 h, 80 μM ([3]; CMV/U251 cells): ~40%
toxicity (PrestoBlue) (MCF-7): toxic
toxicity (PrestoBlue) (CG-4): toxic
viability at 24 h, 80 μM ([4]; CMV/U251 cells on coverslips, co-cultured with MCF-7 cells, CMV/U251 in co-culture with MCF-7, 80 μM Luc free or loaded, or carrier alone): ~28%
viability at 24 h, 80 μM ([4]; MCF-7 cells on coverslips, co-cultured with CMV/U251 cells, MCF-7 in co-culture with CMV/U251, 80 μM Luc free or loaded, or carrier alone): ~36%
viability at 24 h, 80 μM ([5]; human, CMV/U251 cells on coverslips, co-cultured with CG-4 cells, CMV/U251 in co-culture with CG-4, 80 μM Luc free or loaded): ~15%
viability at 24 h, 80 μM ([5]; rat, CG-4 cells on coverslips, co-cultured with CMV/U251 cells, CG-4 in co-culture with CMV/U251, 80 μM Luc free or loaded): ~30%
cell death (A1-5/CMV/U251; 40 μM free Luc): 100%
% AV+ (A1-5/CMV/U251; 5 μM lucanthone): 0%
% PI + AV+ (A1-5/CMV/U251; 5 μM lucanthone): 0%
% PI+ (A1-5/CMV/U251; 5 μM lucanthone): 76%
% PI−AV− (A1-5/CMV/U251; 5 μM lucanthone): 24%
% AV+ (A1-5/CMV/U251; 10 μM lucanthone): 0%
% PI + AV+ (A1-5/CMV/U251; 10 μM lucanthone): 0%
% PI+ (A1-5/CMV/U251; 10 μM lucanthone): 92%
% PI−AV− (A1-5/CMV/U251; 10 μM lucanthone): 8%
% AV+ (A1-5/CMV/U251; 20 μM lucanthone): 0%
% PI + AV+ (A1-5/CMV/U251; 20 μM lucanthone): 0%
% PI+ (A1-5/CMV/U251; 20 μM lucanthone): 98%
% PI−AV− (A1-5/CMV/U251; 20 μM lucanthone): 2%
% AV+ (A1-5/CMV/U251; 40 μM lucanthone): 0%
% PI + AV+ (A1-5/CMV/U251; 40 μM lucanthone): 0%
% PI+ (A1-5/CMV/U251; 40 μM lucanthone): 100%
% PI−AV− (A1-5/CMV/U251; 40 μM lucanthone): 0%
% AV+ (A1-5/CMV/U251; 80 μM lucanthone): 0%
% PI + AV+ (A1-5/CMV/U251; 80 μM lucanthone): 0%
% PI+ (A1-5/CMV/U251; 80 μM lucanthone): 100%
% PI−AV− (A1-5/CMV/U251; 80 μM lucanthone): 0%
cell death (CMV/U251; 80 μM free Luc): 100%
% AV+ (CMV/U251; 5 μM lucanthone): 0%
% PI + AV+ (CMV/U251; 5 μM lucanthone): 17%
% PI+ (CMV/U251; 5 μM lucanthone): 78%
% PI−AV− (CMV/U251; 5 μM lucanthone): 20%
% AV+ (CMV/U251; 10 μM lucanthone): 0%
% PI + AV+ (CMV/U251; 10 μM lucanthone): 0%
% PI+ (CMV/U251; 10 μM lucanthone): 95%
% PI−AV− (CMV/U251; 10 μM lucanthone): 5%
% AV+ (CMV/U251; 20 μM lucanthone): 0%
% PI + AV+ (CMV/U251; 20 μM lucanthone): 0%
% PI+ (CMV/U251; 20 μM lucanthone): 97%
% PI−AV− (CMV/U251; 20 μM lucanthone): 3%
% AV+ (CMV/U251; 40 μM lucanthone): 0%
% PI + AV+ (CMV/U251; 40 μM lucanthone): 0%
% PI+ (CMV/U251; 40 μM lucanthone): 97%
% PI−AV− (CMV/U251; 40 μM lucanthone): 3%
% AV+ (CMV/U251; 80 μM lucanthone): 5%
% PI + AV+ (CMV/U251; 80 μM lucanthone): 0%
% PI+ (CMV/U251; 80 μM lucanthone): 95%
% PI−AV− (CMV/U251; 80 μM lucanthone): 0%
% PI−AV− (CMV/U251; 80 μM lucanthone, listed as Luc): no healthy living cells remaining
nature of cell death (dead cells PI+/AV−) (CMV/U251; CMV/U251 and A1-5/CMV/U251, 5-80 μM): necrotic

CCCCCCCCCCCCC/C=C/C(O)C(CO)NC(=O)CCCCCNc1ccc([N+](=O)[O-])c2nonc12 [NBD ceramide, C6 N-[6-[(7-nitro-2-1,3-benzoxadiazol-4-yl)amino]hexanoyl]-D-erythro-sphingosine]
uptake of NBD ceramide into cells (fluorescence) (HeLa cells [6]): rapid uptake
